Read-outs that look alike come from different tables or passages of the source.
Target: T1, EZH2 protein in LS174T cells (Homo sapiens, UniProt Q15910)
T1 construct: endogenous in cells; host or cells: LS174T
Assay: Proteolytic effect in colorectal cancer cells (Western blotting)
Type: cell-based
Protocol: After 72 hours of the treatment, the cells were collected and lysed using RIPA buffer (50 mM Tris, pH 7.5, 150 mM NaCl, 1% Triton X-100, 0.1% SDS, […], 0.5% deoxycholate, and protease inhibitor cocktail), followed by sonication (30 sec on/30 sec off, 5 cycles) to prepare a cell lysate.

[1] = EZH2 protein, LS174T cells, 1 μM, 72 hours
[2] = EZH2 protein, LS174T cells, 1 uM, 72 hours, Western blotting

T1 sequence (Q15910 whole entry): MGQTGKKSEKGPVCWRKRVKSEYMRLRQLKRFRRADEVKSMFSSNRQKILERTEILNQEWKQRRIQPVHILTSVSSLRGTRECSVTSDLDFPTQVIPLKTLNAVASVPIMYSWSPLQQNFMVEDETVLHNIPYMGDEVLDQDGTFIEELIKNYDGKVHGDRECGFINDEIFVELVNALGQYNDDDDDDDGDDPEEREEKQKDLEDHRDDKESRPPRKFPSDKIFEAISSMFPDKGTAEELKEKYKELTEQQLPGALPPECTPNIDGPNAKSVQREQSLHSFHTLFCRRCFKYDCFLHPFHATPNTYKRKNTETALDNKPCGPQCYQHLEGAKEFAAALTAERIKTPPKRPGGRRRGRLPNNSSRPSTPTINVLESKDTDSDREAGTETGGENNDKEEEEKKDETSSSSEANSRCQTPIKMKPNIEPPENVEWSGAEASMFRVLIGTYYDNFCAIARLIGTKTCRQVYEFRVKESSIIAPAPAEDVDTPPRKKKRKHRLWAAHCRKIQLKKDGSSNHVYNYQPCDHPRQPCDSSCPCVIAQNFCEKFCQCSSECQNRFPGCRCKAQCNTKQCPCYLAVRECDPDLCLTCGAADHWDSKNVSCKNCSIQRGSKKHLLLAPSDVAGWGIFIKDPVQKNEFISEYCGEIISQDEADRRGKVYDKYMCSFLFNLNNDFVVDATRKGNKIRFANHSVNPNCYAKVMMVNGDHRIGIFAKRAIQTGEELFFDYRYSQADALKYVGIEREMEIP
T1 sequence (O75530 whole entry partner): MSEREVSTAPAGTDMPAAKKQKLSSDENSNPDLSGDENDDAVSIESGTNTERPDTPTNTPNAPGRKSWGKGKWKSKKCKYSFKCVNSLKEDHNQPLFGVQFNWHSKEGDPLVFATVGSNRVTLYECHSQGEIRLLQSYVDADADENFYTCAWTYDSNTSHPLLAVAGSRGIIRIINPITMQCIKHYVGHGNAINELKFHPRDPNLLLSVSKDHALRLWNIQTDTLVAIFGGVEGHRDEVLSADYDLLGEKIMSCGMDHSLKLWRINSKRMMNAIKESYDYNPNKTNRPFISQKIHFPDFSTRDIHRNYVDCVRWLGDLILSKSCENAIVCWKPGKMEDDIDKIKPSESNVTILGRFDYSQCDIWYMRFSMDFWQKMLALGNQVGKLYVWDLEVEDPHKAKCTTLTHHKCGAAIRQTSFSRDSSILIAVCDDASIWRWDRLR
T1 sequence (Q15022 whole entry partner): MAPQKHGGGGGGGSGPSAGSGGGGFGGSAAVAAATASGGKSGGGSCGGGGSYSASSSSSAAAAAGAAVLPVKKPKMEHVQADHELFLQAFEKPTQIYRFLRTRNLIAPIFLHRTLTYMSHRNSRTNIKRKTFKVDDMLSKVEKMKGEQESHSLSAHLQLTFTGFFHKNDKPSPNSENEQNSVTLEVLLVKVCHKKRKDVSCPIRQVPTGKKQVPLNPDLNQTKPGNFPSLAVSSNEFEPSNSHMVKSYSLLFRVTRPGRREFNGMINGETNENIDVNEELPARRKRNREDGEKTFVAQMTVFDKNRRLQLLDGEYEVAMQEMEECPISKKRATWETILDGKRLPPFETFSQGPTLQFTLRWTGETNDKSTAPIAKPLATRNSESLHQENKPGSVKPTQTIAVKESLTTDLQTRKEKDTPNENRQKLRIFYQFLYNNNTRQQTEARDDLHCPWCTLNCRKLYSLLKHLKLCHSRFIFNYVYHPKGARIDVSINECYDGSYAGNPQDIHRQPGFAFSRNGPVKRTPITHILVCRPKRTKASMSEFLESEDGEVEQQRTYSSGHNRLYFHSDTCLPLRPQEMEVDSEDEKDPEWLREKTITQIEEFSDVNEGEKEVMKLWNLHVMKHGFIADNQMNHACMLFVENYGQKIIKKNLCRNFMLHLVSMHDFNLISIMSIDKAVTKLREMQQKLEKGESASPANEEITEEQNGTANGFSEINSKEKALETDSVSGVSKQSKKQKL

Compound	Grade (percent value of the protein degradation when treated with 1 μM) [1]	%, degradation at 1 uM [2] [%]	%, degradation at 1 uM [%]	Grade (percent value of the protein degradation when treated with 1 μM)
CCN(c1cc(-c2ccc(CN3CCN(CC(=O)NCCNc4cccc5c4C(=O)N(C4CCC(=O)NC4=O)C5=O)CC3)cc2)cc(C(=O)NCc2c(C)cc(C)[nH]c2=O)c1C)C1CCOCC1 (stereo not shown) [Example 1, N-((4,6-dimethyl-2-oxo-1,2-dihydropyridine-3-yl)methyl)-4′-((4-(2-((2-((2-(2,6-dioxopiperidine-3-yl)-1,3-dioxoisoindoline-4-yl)amino)ethyl)amino)-2-oxoethyl)piperazine-1-yl)methyl)-5-(ethyl(tetrahydro-2H-pyran-4-yl)amino)-4-methyl-[1,1′-biphenyl]-3-carboxamide]	D (<25%)	8.15		
CCN(c1cc(-c2ccc(CN3CCN(CCCCCNc4cccc5c4C(=O)N(C4CCC(=O)NC4=O)C5=O)CC3)cc2)cc(C(=O)NCc2c(C)cc(C)[nH]c2=O)c1C)C1CCOCC1 (stereo not shown) [Example 2, N-((4,6-dimethyl-2-oxo-1,2-dihydropyridine-3-yl)methyl)-4′-((4-(5-((2-(2,6-dioxopiperidine-3-yl)-1,3-dioxoisoindoline-4-yl)amino)pentyl)piperazine-1-yl)methyl)-5-(ethyl(tetrahydro-2H-pyran-4-yl)amino)-4-methyl-[1,1′-biphenyl]-3-carboxamide]	D (<25%)	18.10		
CCN(c1cc(-c2ccc(CN3CCN(CC(=O)NCCCCNc4cccc5c4C(=O)N(C4CCC(=O)NC4=O)C5=O)CC3)cc2)cc(C(=O)NCc2c(C)cc(C)[nH]c2=O)c1C)C1CCOCC1 (stereo not shown) [Example 3, N-((4,6-dimethyl-2-oxo-1,2-dihydropyridine-3-yl)methyl)-4′-((4-(2-((4-((2-(2,6-dioxopiperidine-3-yl)-1,3-dioxoisoindoline-4-yl)amino)butyl)amino)-2-oxoethyl)piperazine-1-yl)methyl)-5-(ethyl(tetrahydro-2H-pyran-4-yl)amino)-4-methyl-[1,1′-biphenyl]-3-carboxamide]	D (<25%)	13.61		
CCN(c1cc(-c2ccc(CN3CCN(CC(=O)NCCOCCOCCOCCC(=O)NCCNc4cccc5c4C(=O)N(C4CCC(=O)NC4=O)C5=O)CC3)cc2)cc(C(=O)NCc2c(C)cc(C)[nH]c2=O)c1C)C1CCOCC1 (stereo not shown) [Example 4, N-((4,6-dimethyl-2-oxo-1,2-dihydropyridine-3-yl)methyl)-4′-((4-(18-((2-(2,6-dioxopiperidine-3-yl)-1,3-dioxoisoindoline-4-yl)amino)-2,15-dioxo-6,9,12-trioxa-3,16-diazaoctadecyl)piperazine-1-yl)methyl)-5-(ethyl(tetrahydro-2H-pyran-4-yl)amino)-4-methyl-[1,1′-biphenyl]-3-carboxamide]	D (<25%)	0		
CCN(c1cc(-c2ccc(CN3CCN(CC(=O)NCCOc4cccc5c4C(=O)N(C4CCC(=O)NC4=O)C5=O)CC3)cc2)cc(C(=O)NCc2c(C)cc(C)[nH]c2=O)c1C)C1CCOCC1 (stereo not shown) [Example 5, N-((4,6-dimethyl-2-oxo-1,2-dihydropyridine-3-yl)methyl)-4′-((4-(2-((2-((2-(2,6-dioxopiperidine-3-yl)-1,3-dioxoisoindoline-4-yl)oxy)ethyl)amino)-2-oxoethyl)piperazine-1-yl)methyl)-5-(ethyl(tetrahydro-2H-pyran-4-yl)amino)-4-methyl-[1,1′-biphenyl]-3-carboxamide]	D (<25%)	0		
CCN(c1cc(-c2ccc(CN3CCN(CC(=O)NCCCCCCNc4cccc5c4C(=O)N(C4CCC(=O)NC4=O)C5=O)CC3)cc2)cc(C(=O)NCc2c(C)cc(C)[nH]c2=O)c1C)C1CCOCC1 (stereo not shown) [Example 6, N-((4,6-dimethyl-2-oxo-1,2-dihydropyridine-3-yl)methyl)-4′-((4-(2-((6-((2-(2,6-dioxopiperidine-3-yl)-1,3-dioxoisoindoline-4-yl)amino)hexyl)amino)-2-oxoethyl)piperazine-1-yl)methyl)-5-(ethyl(tetrahydro-2H-pyran-4-yl)amino)-4-methyl-[1,1′-biphenyl]-3-carboxamide]	B (50-75%)	61.64		
CCN(c1cc(-c2ccc(CN3CCN(CC(=O)NCCCCOc4cccc5c4C(=O)N(C4CCC(=O)NC4=O)C5=O)CC3)cc2)cc(C(=O)NCc2c(C)cc(C)[nH]c2=O)c1C)C1CCOCC1 (stereo not shown) [Example 7, N-((4,6-dimethyl-2-oxo-1,2-dihydropyridine-3-yl)methyl)-4′-((4-(2-((4-((2-(2,6-dioxopiperidine-3-yl)-1,3-dioxoisoindoline-4-yl)oxy)butyl)amino)-2-oxoethyl)piperazine-1-yl)methyl)-5-(ethyl(tetrahydro-2H-pyran-4-yl)amino)-4-methyl-[1,1′-biphenyl]-3-carboxamide]			22.74	D (key: A: >75%; B: 50-75%; C: 25-50%; D: <25%)
CCN(c1cc(-c2ccc(CN3CCN(CC(=O)NCCCCCCOc4cccc5c4C(=O)N(C4CCC(=O)NC4=O)C5=O)CC3)cc2)cc(C(=O)NCc2c(C)cc(C)[nH]c2=O)c1C)C1CCOCC1 (stereo not shown) [Example 8, N-((4,6-dimethyl-2-oxo-1,2-dihydropyridine-3-yl)methyl)-4′-((4-(2-((6-((2-(2,6-dioxopiperidine-3-yl)-1,3-dioxoisoindoline-4-yl)oxy)hexyl)amino)-2-oxoethyl)piperazine-1-yl)methyl)-5-(ethyl(tetrahydro-2H-pyran-4-yl)amino)-4-methyl-[1,1′-biphenyl]-3-carboxamide]	D (<25%)	2.91		
CCN(c1cc(-c2ccc(CN3CCN(CCCCCCCOc4cccc5c4C(=O)N(C4CCC(=O)NC4=O)C5=O)CC3)cc2)cc(C(=O)NCc2c(C)cc(C)[nH]c2=O)c1C)C1CCOCC1 (stereo not shown) [Example 10, N-((4,6-dimethyl-2-oxo-1,2-dihydropyridine-3-yl)methyl)-4′-((4-(7-((2-(2,6-dioxopiperidine-3-yl)-1,3-dioxoisoindoline-4-yl)oxy)heptyl)piperazine-1-yl)methyl)-5-(ethyl(tetrahydro-2H-pyran-4-yl)amino)-4-methyl-[1,1′-biphenyl]-3-carboxamide]	D (<25%)	0		
CCN(c1cc(-c2ccc(CN3CCN(CCCCCCCNc4cccc5c4C(=O)N(C4CCC(=O)NC4=O)C5=O)CC3)cc2)cc(C(=O)NCc2c(C)cc(C)[nH]c2=O)c1C)C1CCOCC1 (stereo not shown) [Example 11, N-((4,6-dimethyl-2-oxo-1,2-dihydropyridine-3-yl)methyl)-4′-((4-(7-((2-(2,6-dioxopiperidine-3-yl)-1,3-dioxoisoindoline-4-yl)amino)heptyl)piperazine-1-yl)methyl)-5-(ethyl(tetrahydro-2H-pyran-4-yl)amino)-4-methyl-[1,1′-biphenyl]-3-carboxamide]	D (<25%)	12.87		
CCN(c1cc(-c2ccc(CN3CCN(C(=O)CNCCNc4cccc5c4C(=O)N(C4CCC(=O)NC4=O)C5=O)CC3)cc2)cc(C(=O)NCc2c(C)cc(C)[nH]c2=O)c1C)C1CCOCC1 (stereo not shown) [Example 12, N-((4,6-dimethyl-2-oxo-1,2-dihydropyridine-3-yl)methyl)-4′-((4-((2-((2-(2,6-dioxopiperidine-3-yl)-1,3-dioxoisoindoline-4-yl)amino)ethyl)glycyl)piperazine-1-yl)methyl)-5-(ethyl(tetrahydro-2H-pyran-4-yl)amino)-4-methyl-[1,1′-biphenyl]-3-carboxamide]	D (<25%)	16.89		
CCN(c1cc(-c2ccc(CN3CCN(C(=O)CNCCCCNc4cccc5c4C(=O)N(C4CCC(=O)NC4=O)C5=O)CC3)cc2)cc(C(=O)NCc2c(C)cc(C)[nH]c2=O)c1C)C1CCOCC1 (stereo not shown) [Example 13, N-((4,6-dimethyl-2-oxo-1,2-dihydropyridine-3-yl)methyl)-4′-((4-((4-((2-(2,6-dioxopiperidine-3-yl)-1,3-dioxoisoindoline-4-yl)amino)butyl)glycyl)piperazine-1-yl)methyl)-5-(ethyl(tetrahydro-2H-pyran-4-yl)amino)-4-methyl-[1,1′-biphenyl]-3-carboxamide]	C (25-50%)	29.35		
CCN(c1cc(-c2ccc(CN3CCN(C(=O)CNCCCCCCNc4cccc5c4C(=O)N(C4CCC(=O)NC4=O)C5=O)CC3)cc2)cc(C(=O)NCc2c(C)cc(C)[nH]c2=O)c1C)C1CCOCC1 (stereo not shown) [Example 14, N-((4,6-dimethyl-2-oxo-1,2-dihydropyridine-3-yl)methyl)-4′-((4-((6-((2-(2,6-dioxopiperidine-3-yl)-1,3-dioxoisoindoline-4-yl)amino)hexyl)glycyl)piperazine-1-yl)methyl)-5-(ethyl(tetrahydro-2H-pyran-4-yl)amino)-4-methyl-[1,1′-biphenyl]-3-carboxamide]	D (<25%)	6.21		
CCN(c1cc(-c2ccc(CN3CCN(CC(=O)NCCCOCCNc4cccc5c4C(=O)N(C4CCC(=O)NC4=O)C5=O)CC3)cc2)cc(C(=O)NCc2c(C)cc(C)[nH]c2=O)c1C)C1CCOCC1 (stereo not shown) [Example 15, N-((4,6-dimethyl-2-oxo-1,2-dihydropyridine-3-yl)methyl)-4′-((4-(2-((3-(2-((2-(2,6-dioxopiperidine-3-yl)-1,3-dioxoisoindoline-4-yl)amino)ethoxy)propyl)amino)-2-oxoethyl)piperazine-1-yl)methyl)-5-(ethyl(tetrahydro-2H-pyran-4-yl)amino)-4-methyl-[1,1′-biphenyl]-3-carboxamide]	D (<25%)	0		
